In experiment [1] the target is T1, High affinity choline transporter 1 (Homo sapiens, UniProt Q9GZV3).
T1 sequence (Q9GZV3 whole entry): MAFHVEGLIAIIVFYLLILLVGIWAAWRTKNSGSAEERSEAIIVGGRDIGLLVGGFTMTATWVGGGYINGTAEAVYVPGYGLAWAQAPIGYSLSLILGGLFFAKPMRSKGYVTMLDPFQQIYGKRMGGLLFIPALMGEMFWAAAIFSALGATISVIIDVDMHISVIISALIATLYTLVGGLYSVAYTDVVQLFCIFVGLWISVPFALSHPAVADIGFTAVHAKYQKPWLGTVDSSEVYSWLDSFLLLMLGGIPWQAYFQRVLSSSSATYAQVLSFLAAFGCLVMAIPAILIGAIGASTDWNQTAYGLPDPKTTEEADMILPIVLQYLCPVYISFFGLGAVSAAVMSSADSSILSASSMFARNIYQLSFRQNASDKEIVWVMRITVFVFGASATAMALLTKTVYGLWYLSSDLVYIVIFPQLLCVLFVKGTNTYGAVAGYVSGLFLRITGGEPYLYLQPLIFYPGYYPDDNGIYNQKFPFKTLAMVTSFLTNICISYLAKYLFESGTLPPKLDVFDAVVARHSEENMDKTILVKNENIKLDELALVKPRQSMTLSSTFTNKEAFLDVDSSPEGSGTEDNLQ
The experiment is described as follows: human choline transporter blockers, potency – cell-based, 5-point CRC, membrane potential dye, dose response (AID 504840). The format is functional.

For experiment [2], the target named is T2, Polyadenylate-binding protein 1 (Homo sapiens, UniProt P11940). The experiment is described as follows: MLLE binding blockers, Cy5 peptide tracer – biochemical, fluorescence polarization, Cy5-PAM2 peptide, secondary, miRNA deadenylation inhibitor project, dose response (AID 602260). The experiment is classed as functional. Conditions: read-out: IC50_Mean. A general note: Fluorescence polarisation rises when a labelled molecule tumbles more slowly, as on binding a larger partner.
T2 sequence (P11940 whole entry): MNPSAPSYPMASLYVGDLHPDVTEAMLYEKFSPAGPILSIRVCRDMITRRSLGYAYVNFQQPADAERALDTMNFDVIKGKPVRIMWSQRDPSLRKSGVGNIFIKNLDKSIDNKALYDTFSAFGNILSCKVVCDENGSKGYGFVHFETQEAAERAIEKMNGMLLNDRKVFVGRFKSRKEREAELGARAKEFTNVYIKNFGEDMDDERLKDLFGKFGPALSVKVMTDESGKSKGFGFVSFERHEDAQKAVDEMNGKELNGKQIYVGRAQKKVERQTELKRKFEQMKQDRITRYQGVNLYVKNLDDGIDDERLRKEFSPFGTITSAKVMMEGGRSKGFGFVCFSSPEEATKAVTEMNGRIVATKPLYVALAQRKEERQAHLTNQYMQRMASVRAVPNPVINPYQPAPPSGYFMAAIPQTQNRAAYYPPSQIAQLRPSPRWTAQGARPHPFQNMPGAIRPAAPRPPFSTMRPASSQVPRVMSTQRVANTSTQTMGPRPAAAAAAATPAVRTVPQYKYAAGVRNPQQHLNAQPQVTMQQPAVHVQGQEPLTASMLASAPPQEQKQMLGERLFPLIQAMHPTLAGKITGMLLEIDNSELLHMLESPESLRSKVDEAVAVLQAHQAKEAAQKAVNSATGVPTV

The target in experiment [3] is T2, Polyadenylate-binding protein 1. The experiment is described as follows: MLLE domain peptide-binding blockers, IC50 – biochemical, fluorescence polarization, FITC-PAM2 peptide, dose response (AID 602259). The experiment is classed as functional. Conditions: read-out: IC50_Mean.
Experiment [4] has as its target Cytochrome P450 3A4 (Homo sapiens, UniProt P08684).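 Further: CYP3A4 tested as one member of a cytochrome P450 panel screen.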
In experiment [5] the target is Cytochrome P450 2C19 (Homo sapiens, UniProt P33261). The experiment is described as follows: Cytochrome panel assay with activity outcomes. Panel member name: p450-cyp2c19 Compounds with AC50 equal or less than 10 uM are considered active. Conditions: read-out: AC50. The format is functional.
Chain of Cytochrome P450 2C19 (P33261 whole entry): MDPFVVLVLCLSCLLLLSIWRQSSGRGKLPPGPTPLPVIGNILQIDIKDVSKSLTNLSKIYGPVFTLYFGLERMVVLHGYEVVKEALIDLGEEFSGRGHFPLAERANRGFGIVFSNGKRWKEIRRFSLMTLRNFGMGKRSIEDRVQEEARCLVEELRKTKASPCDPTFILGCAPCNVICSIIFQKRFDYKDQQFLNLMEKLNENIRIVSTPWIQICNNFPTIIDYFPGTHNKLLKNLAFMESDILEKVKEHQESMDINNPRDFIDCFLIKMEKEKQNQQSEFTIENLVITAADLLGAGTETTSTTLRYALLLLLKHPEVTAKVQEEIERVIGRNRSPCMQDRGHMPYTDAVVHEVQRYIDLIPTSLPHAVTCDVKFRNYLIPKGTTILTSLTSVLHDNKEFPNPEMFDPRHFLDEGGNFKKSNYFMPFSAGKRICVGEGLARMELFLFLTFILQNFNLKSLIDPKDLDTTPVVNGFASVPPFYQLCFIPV
The target in experiment [6] is Cytochrome P450 2C9 (Homo sapiens, UniProt P11712).
Chain of Cytochrome P450 2C9 (P11712 whole entry): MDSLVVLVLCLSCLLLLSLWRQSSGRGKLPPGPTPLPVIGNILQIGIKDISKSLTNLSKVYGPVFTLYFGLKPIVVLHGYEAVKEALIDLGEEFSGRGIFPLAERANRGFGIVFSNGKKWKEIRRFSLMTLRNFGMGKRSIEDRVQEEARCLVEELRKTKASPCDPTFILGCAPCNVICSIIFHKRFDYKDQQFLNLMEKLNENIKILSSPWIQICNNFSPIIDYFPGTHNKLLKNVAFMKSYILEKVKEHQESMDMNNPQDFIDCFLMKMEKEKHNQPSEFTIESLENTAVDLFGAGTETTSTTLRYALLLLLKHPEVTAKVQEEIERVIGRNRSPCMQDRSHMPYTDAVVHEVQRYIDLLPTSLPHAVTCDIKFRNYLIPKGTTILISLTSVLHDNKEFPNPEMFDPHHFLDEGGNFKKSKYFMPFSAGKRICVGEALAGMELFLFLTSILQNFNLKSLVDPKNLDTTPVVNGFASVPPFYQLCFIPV
The target in experiment [7] is T3, Cytochrome P450 1A2 (Homo sapiens, UniProt P05177).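 Further: PubChem cytochrome P450 panel assay, CYP1A2 panel member.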
T3 sequence (P05177 whole entry): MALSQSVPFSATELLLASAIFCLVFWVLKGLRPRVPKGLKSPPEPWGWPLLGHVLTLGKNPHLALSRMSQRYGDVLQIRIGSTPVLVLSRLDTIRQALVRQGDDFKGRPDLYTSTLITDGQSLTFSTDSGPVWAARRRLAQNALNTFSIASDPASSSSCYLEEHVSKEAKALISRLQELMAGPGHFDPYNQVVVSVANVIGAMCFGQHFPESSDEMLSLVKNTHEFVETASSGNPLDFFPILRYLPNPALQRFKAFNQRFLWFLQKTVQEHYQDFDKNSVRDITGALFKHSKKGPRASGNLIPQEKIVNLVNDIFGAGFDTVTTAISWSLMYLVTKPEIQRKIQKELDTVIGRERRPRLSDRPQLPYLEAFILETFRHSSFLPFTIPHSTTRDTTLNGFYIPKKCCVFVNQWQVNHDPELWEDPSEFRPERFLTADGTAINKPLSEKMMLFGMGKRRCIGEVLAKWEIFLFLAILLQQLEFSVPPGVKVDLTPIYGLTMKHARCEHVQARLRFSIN

Experiment [8] has as its target Cytochrome P450 2D6 (Homo sapiens, UniProt P10635).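 Further: CYP2D6 member of a cytochrome P450 panel assay.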
For experiment [9], the system named is SN12K1. The experiment is described as follows: cells. The format is functional. Particulars: Homo sapiens.
In experiment [10] the test system is P388. The experiment is described as follows: cells. The format is functional. Conditions: Mus musculus.
For experiment [11], the system named is P388/ADR. Nature of the experiment: cells. The experiment is classed as functional. Particulars: Mus musculus.
Experiment [12] is described as follows: Luminescence Cell-Based Dose Confirmation HTS to Identify Activators of 5'UTR Stem-Loop Driven Alpha-Synuclein mRNA Translation in H4 Neuroglioblastoma Cells. [Related pubchem assays: 1829 (Project Summary), 1814 (Primary HTS)]. The format is functional.
A short description of experiment [13]: Luminescence Cell-Based Dose Response HTS to Identify Activators of Luciferase Translation or Activity in H4 […] Cells. [Related pubchem assays: 1829 (Project Summary), 1814 (Primary HTS)]. The format is functional.
The subject of experiment [14] is H4. The experiment is described as follows: Luminescence Cell-Based Dose Response HTS to Identify Activators of 5'UTR Stem-Loop Driven Prion Protein mRNA Translation in H4 Neuroglioblastoma Cells. [Related pubchem assays: 1829 (Project Summary), 1814 (Primary HTS)]. The experiment is classed as functional. Particulars: Homo sapiens.

Molecules are shown by their SMILES. Values joined by “and” are separate entries in the source; they are usually repeats but may differ in a detail not shown here. Equal values may be shown once. Where a name gives a salt, the structure may show the parent alone. Active and inactive are the calls of the source.

The results in this text go back to ChEMBL document CHEMBL1201862, “PubChem BioAssay data set” (2004).

Chain of Cytochrome P450 3A4 (P08684 whole entry): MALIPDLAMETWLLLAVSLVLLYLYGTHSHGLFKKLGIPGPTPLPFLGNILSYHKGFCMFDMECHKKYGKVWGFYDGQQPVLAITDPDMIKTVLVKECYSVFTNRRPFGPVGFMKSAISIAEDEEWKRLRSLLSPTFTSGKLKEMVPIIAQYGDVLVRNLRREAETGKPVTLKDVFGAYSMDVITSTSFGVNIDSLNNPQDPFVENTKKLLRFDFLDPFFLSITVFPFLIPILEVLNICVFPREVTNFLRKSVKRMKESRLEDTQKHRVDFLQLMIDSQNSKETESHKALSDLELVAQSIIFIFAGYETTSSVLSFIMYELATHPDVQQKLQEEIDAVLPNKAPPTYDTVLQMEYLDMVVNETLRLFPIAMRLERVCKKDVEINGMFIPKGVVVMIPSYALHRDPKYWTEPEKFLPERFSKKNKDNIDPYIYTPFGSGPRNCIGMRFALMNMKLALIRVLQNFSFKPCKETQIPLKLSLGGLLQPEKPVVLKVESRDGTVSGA
Chain of Cytochrome P450 2D6 (P10635 whole entry): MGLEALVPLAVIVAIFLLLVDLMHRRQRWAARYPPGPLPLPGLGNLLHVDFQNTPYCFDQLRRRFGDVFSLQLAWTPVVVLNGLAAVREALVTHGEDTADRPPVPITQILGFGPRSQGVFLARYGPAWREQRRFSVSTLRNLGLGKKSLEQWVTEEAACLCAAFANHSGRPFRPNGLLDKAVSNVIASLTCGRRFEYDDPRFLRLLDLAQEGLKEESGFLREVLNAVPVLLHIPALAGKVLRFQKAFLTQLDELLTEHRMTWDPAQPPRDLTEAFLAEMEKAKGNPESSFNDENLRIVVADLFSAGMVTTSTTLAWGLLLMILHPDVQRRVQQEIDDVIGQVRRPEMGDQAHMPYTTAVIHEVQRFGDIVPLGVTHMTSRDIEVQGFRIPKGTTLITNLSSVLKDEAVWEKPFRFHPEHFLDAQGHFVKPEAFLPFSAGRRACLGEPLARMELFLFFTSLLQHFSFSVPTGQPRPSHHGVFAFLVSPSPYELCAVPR

For the compound `CCOc1cc(N2CCOCC2)c(OCC)cc1NC(=O)Cc1ccccc1`, the IC50 in experiment [1] was 13.2 µM (active).
With `CC(=O)OCCOCn1cnn2c(=O)c(Br)c(C)nc12`, the IC50 in experiment [1] was 13.5 µM (active).
In the case of `C=CCSc1nc2c(c(=O)[nH]c(=O)n2C)n1C(C)C`, the IC50 in experiment [2] and in [3] was > 66 µM (inactive) each time.
As for `O=C(CN1C(=O)NC2(CCCc3ccccc32)C1=O)N1CCc2ccccc2C1` (stereo not drawn), the IC50 in [1] is 13.5 µM (active).
For `COCCn1c(=O)c(-c2cc(F)cc(F)c2)nc2cnc(Oc3ccccc3)nc21`, the values for the concentration at half-maximal activity (AC50) in experiment [4], in experiment [5] and in [6] were 20 µM (inconclusive), 39.8 µM (inconclusive) and 20 µM (inconclusive), respectively.
For the compound `COC(=O)c1cc(OC)c(OC)cc1NC(=O)CSc1ccc(C)cc1`, the AC50 (usually the midpoint of the concentration-response curve, whichever way the signal moves) in experiment [6] is 7.94 µM (inconclusive).
For `O=C(NC(=S)N1C[C@H]2C[C@H](C1)c1cccc(=O)n1C2)c1ccc(Cl)cc1`, the IC50 in experiment [2] and in experiment [3] was > 66 µM (inactive) throughout.
As for `CC(C)NCCCOc1ccc(Cl)cc1Br`, the AC50 in experiment [6] was 4.47 µM (inconclusive).
`CCCCCC1CCC(C(=O)NN=C(S)NCC)CC1` (stereo not drawn): the figures for the AC50 in [7], in experiment [8] and in experiment [6] were 12.6 µM (inconclusive), 15.8 µM (inconclusive) and 1.78 µM (inconclusive), respectively.
In the case of `CCC(=O)Nc1ccc(Cl)c(NC(=S)NC(=O)COc2ccccc2)c1`, the IC50 in [2] and in experiment [3] was > 66 µM (inactive) each time.
Turning to `Cc1cc(C)c[n+](-c2[n-]c(=O)sc2C=NNC(=O)c2cccnc2)c1`, the IC50 in experiment [2] was > 66 µM (inactive); in experiment [3], 59.7 µM (inactive).
Take `NNCCc1ccccc1` [PHENELZINE]: the AC50 in experiment [6] is 158 nM (inconclusive) and 10 µM (inconclusive).
Consider `O=C1C=CC2OC(c3ccccc3)C(O)C2O1` (stereo not drawn), for which the GI50 – broadly, the concentration giving 50% growth inhibition – in [9] is 4.6 µM (inactive); in [10], 1.56 µM (inactive); in experiment [11], 1.16 µM (inactive).
Take `O=C(COc1ccccc1-c1ccccc1)NNC(=O)NC1CCCCC1`: the IC50 in [1] was 15.8 µM (active). Further, the EC50 in experiment [12], in experiment [13] and in experiment [14] was > 120 µM (not active) in each case.
For `CC1=C(C(=O)N2CCCCCC2)C2(CCC(C)CC2)OC1=O` (stereo not drawn), the AC50 in experiment [7] was 0.0158 µM (inconclusive); in experiment [6], 28.2 µM (inconclusive).
On to `CN(Cc1ccc(Cl)cc1)C(=O)COC(=O)CSc1ccc([N+](=O)[O-])cc1`, for which the IC50 in experiment [2] and in [3] was > 66 µM (inactive) throughout.
With `CCSc1nc(COC(=O)NC)c(COC(=O)NC)n1C`, the GI50 was > 100 µM (inactive) in experiment [9], 67.6 µM (inactive) in experiment [10] and > 100 µM (inactive) in [11].
Take `O=C(C[n+]1cccc2ccccc21)c1ccc(Br)cc1`: the IC50 in experiment [1] was 13.2 µM (active).
Take `CNC(=O)CSP(=S)(OC)OC` [DIMETHOATE]: the IC50 in experiment [2] and in experiment [3] was > 66 µM (inactive) throughout.
Turning to `COC(=O)[C@@H](O)[C@](O)(CCC(C)C)C(=O)O[C@@H]1C(OC)=C[C@]23CCCN2CCc2cc4c(cc2[C@H]13)OCO4`, the GI50 was 0.682 µM (active) in experiment [9], 0.247 µM (active) in [10] and 2.29 µM (inactive) in experiment [11].
Regarding `CC(C)=CCc1c(O)ccc2ccc(=O)oc12` [OSTHENOL], the figures for the GI50 in experiment [9], in experiment [10] and in [11] were 59.7 µM (inactive), 42.7 µM (inactive) and 50 µM (inactive), respectively.
The like results for `CSCSCC(CO)NC(=O)/C=C\c1c(C)[nH]c(=O)[nH]c1=O` (stereo not drawn) were, in that order, 11.1 µM (inactive), 23.1 µM (inactive) and 57.4 µM (inactive).
Regarding `N/C(=N\O)N/N=C\c1ccccc1O`, the GI50 in experiment [9] was 3.91 µM (inactive); in experiment [10], 1.66 µM (inactive); in experiment [11], 1.54 µM (inactive).
As to `NC(=O)CN1CCN(c2nc(-c3ccc(F)cc3)cs2)CC1`, the AC50 was 14.1 µM (inconclusive) in experiment [4] and 6.31 µM (inconclusive) in experiment [6].
On to `O=C1C(Br)=CC2(C=C1Br)CCNC1=C2C2=NCCc3c[nH]c(c32)C1=O`, for which the concentration for 50% growth inhibition (GI50) is 0.168 µM (active) in experiment [9], 0.0146 µM (active) in experiment [10] and 0.0162 µM (active) in experiment [11].
For the compound `O=C1CN=C(Nc2ccc(Cl)cc2)N1c1ccccc1`, the AC50 in experiment [7] is 14.1 µM (inconclusive); in experiment [8], 20 µM (inconclusive); in experiment [4], 14.1 µM (inconclusive); in experiment [6], 0.00562 µM (inconclusive).
On to `CCCCCCCCC1=CCC(CN(C)C)C1=O` (stereo not drawn), for which the results for the GI50 in experiment [9], in [10] and in experiment [11] were 17.6 µM (inactive), 4.29 µM (inactive) and 2.92 µM (inactive), respectively.
The like results for `CCN(CCCl)CCNc1c2ccccc2nc2ccc(OC)cc12` were, in that order, 0.647 µM (active), 0.0757 µM (active) and 0.29 µM (active).
As for `COc1ccc(CNc2nc(-c3cccc(C#N)c3)nc3ccccc23)c(OC)c1`, the AC50 in experiment [8] is 3.98 µM (inconclusive); in [5] it was 1.58 µM (inconclusive); in experiment [6] it was 1 µM (inconclusive).
With `C/C(=N/NC(=O)c1ccoc1C)c1ccc(NC(=O)c2ccncc2)cc1`, the EC50 (commonly the concentration giving half of the maximal effect) in experiment [12] was 23.9 µM (active); in experiment [13], 0.148 µM (inconclusive); in experiment [14] it was 0.102 µM (active).
With `NC(=S)Nc1ccc(S(=O)(=O)c2ccc(NC(N)=S)cc2)cc1`, the IC50 in experiment [2] and in experiment [3] was > 66 µM (inactive) throughout.
With `CCNc1ncc2nc(-c3cccs3)c(=O)n(CCC#N)c2n1`, the AC50 in experiment [6] is 12.6 µM (inconclusive).
Take `CC(=O)N(C)c1ccc(Nc2cc(C)nc3ccc4nc[nH]c4c23)cc1` [ACODAZOLE HYDROCHLORIDE]: the GI50 in experiment [9] was 4.9 µM (inactive); in experiment [10] it was 4.5 µM (inactive); in experiment [11], 37 µM (inactive).
Consider `S=C(N=Nc1ccccc1)NNc1ccccc1`, for which the results for the EC50 in experiment [12], in [13] and in [14] were 14.4 µM (active), 14.1 µM (active) and 27.9 µM (inconclusive), respectively.
Consider `CN(Cc1ccccc1)S(=O)(=O)c1ccc(NC(=S)NC(=O)C(C)(C)C)cc1`, for which the IC50 in experiment [2] and in [3] was > 66 µM (inactive) throughout.
Regarding `CCn1c(Cc2ccccc2)nnc1SCC(=O)NC(C)(C)C`, the AC50 in experiment [5] was 14.1 µM (inconclusive); in experiment [6], 12.6 µM (inconclusive).
Take `CC(=O)OC1C=C(C=O)C(O)(C=O)C2(C)CCCC(C)(C)C12` (stereo not drawn): the GI50 is 1.36 µM (inactive) in experiment [9], 0.142 µM (active) in [10] and 0.322 µM (active) in [11].
Turning to `CC1CCCCC1NC(=O)Cn1nnc(-c2ccc(Cl)cc2)n1` (stereo not drawn), the IC50 in experiment [1] is 6.61 µM (active).
On the same count and under the same terms, the value for `CC(C)c1ccc(S(=O)(=O)N2CCC(C(=O)NCC3(N(C)C)CCCCC3)CC2)cc1` was 12.6 µM (active).
